Values belong to the compound of their own block, whether it stands above or below them. Numbered stars: 1 amine (or outer) side, 2 acyl side, 3 side chain; on linkers, the order of the positions; unused ones are H or OH. Square brackets hold non-standard residues; d marks the D form. Peptide text beside a SMILES is read from it. X1 = N=C(NCCC[C@H](N[*:1])C(=O)[*:2])NCCC[C@H]1O[C@@H](n2cnc3c(N)ncnc32)[C@H](O)[C@@H]1O
Experiments:
[1] = biological target: T1, Protein arginine N-methyltransferase 1 (Homo sapiens, UniProt Q99873)
T1 sequence (Q99873 whole entry): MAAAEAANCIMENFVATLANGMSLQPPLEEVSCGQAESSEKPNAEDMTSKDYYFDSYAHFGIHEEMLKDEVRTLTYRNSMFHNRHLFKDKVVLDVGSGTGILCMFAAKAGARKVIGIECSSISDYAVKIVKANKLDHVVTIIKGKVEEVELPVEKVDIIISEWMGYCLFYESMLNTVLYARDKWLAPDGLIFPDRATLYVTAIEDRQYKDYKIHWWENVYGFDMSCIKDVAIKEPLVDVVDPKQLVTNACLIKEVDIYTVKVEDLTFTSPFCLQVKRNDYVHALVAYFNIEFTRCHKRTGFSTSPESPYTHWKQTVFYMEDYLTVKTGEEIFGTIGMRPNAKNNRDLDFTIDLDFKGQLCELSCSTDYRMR

[2] = biological target: T1, Protein arginine N-methyltransferase 1; assay: Inhibition of PRMT1 (unknown origin) using Histone H4 as substrate incubated for 1 hr by fluorescence based analysis
[3] = biological target: T1, Protein arginine N-methyltransferase 1; assay: Inhibition of human PRMT1 using [3H]methylated biotin-labeled peptide as substrate by scintillation proximity assay
[4] = biological target: T1, Protein arginine N-methyltransferase 1; assay: Inhibition of 6His-tagged human recombinant PRMT1 using Histone H4 as substrate

Compound: N=C(NCCCCC(N)C(N)=O)NCCCSC[C@H]1O[C@@H](n2cnc3c(N)ncnc32)[C@H](O)[C@@H]1O (some centres undefined)
IC50 [1]: 3 µM
IC50 [2]: 3 µM

IC50 [3]: 1.33 µM
Compound: CC(=O)N[C@@H](CO)C(=O)NCC(=O)N[C@@H](CCCNC(=N)NCCC[C@H]1O[C@@H](n2cnc3c(N)ncnc32)[C@H](O)[C@@H]1O)C(=O)NCC(=O)N[C@@H](CCCCN)C(=O)NCC(=O)NCC(=O)N[C@@H](CCCCN)C(N)=O (Ac-SG[X1]GKGGK-NH2)

IC50 [4]: > 500 µM
Compound: C[C@@H](O)[C@H](NC(=O)CNC(=O)CNC(=O)[C@H](CCCNC(=N)NCCC[C@H](N)C(=O)O)NC(=O)[C@H](CO)NC(=O)[C@@H](NC(=O)CNC(=O)CNC(=O)[C@@H](N)Cc1c[nH]c2ccccc12)[C@@H](C)O)C(=O)NCC(=O)NCC(=O)N[C@@H](Cc1c[nH]c2ccccc12)C(=O)O

— ChEMBL document CHEMBL5608239, “Structure, Function, and Activity of Small Molecule and Peptide Inhibitors of Protein Arginine Methyltransferase 1” (J Med Chem, 2024)
